Measurements from patent publication US20040242452A1, “Perfume composition” (priority 2001, published 2004).
“Also recorded” adds a separate entry of the source.

Tests used:
healthy female panelists [1] = test: CNV test (contingent negative variation) with inhaled scent samples; type: in vivo, human; conditions: for psycho-sedative / psycho-stimulative effect by measured CNV values (FIG. 1): scent inhaled about 10 cm under the nose, five healthy female panelists, CNV area relative to blank (100%): 100% or less sedative, 100% or more arousal
From the text: The psycho-sedative effect was investigated by measuring negative changes in electric potential, so-called contingent negative variation (CNV). CNV is known to be a slow cerebral potential variation which relates to psychological processes such as alertness, expectation, and anticipation and to changes in the level of consciousness.
In order to screen out a compound having a psycho-sedative or psycho-stimulative effect, a light signal which indicates start of movement is emitted two seconds after stimulation with a warning sound, and a panelist is required to react (i.e., push a button) simultaneously with the recognition of the light. During repetition of a series of such processes, an aromatic product sample is arranged about 10 cm under the nose of the panelist so that its scent can be acknowledged with breathing. An electrode for the measurement of CNV is set on the forehead of the panelist so as to record electric potential between the forehead and an earlobe. It has already been reported that the CNV amplitude increases when caffeine having an arousal effect is perorally administered to humans, whereas the amplitude decreases when nitrazepam having a sedative effect is allowed to be […].
In this test, the psycho-sedative effect was evaluated by use of the percentage as an index. A relative area of 100% or less indicates a sedative effect, and a relative area of 100% or more indicates an arousal effect.
Five healthy female panelists were subjected to the aforementioned CNV test.
Five healthy female adult panelists were subjected to the aforementioned CNV test.
(B) The following samples were prepared: a 1% ethanol solution of perilla aldehyde (commercial product); a 1% ethanol solution of perilla alcohol (commercial product); a 1% ethanol solution of DMMB (commercial product); and a 1% ethanol solution of lemon oil (commercial product). Five healthy female adult panelists were subjected to the aforementioned CNV test.
The following samples were prepared: a 0.05% ethanol solution of solo perilla aldehyde (1); a 0.05% ethanol solution of solo perilla alcohol (2); and an ethanol solution containing perilla aldehyde (0.05%) and perilla alcohol (0.05%) (3). Five healthy female adult panelists were subjected to the aforementioned CNV test.

[2] = disclosed in Japanese Patent Application Laid-Open (kokai) No. 6-172781; also through inhalation of vaporized perfume; cited from earlier work
healthy female panelists [3] = conditions: already reported; humans; caffeine perorally administered, nitrazepam allowed to be inhaled; cited from earlier work
[4] = 1% ethanol solution, five healthy female adult panelists, CNV area relative to blank (100%)

| Compound | psycho-sedative / psycho-stimulative effect by measured CNV values (FIG. 1) (healthy female panelists [1]; 1% ethanol solution) | further results |
| --- | --- | --- |
| C=C(C)C1CC=C(C=O)CC1 (centres unmarked) [perilla aldehyde, dihydrocuminyl aldehyde] | – | synergistic psycho-stimulative effect by measured CNV values (FIG. 4) (healthy female panelists [1]; 0.05% ethanol solution of each component, solo or combined, five healthy female adult panelists): acknowledged to have a psycho-stimulative effect; psycho-stimulative effect by measured CNV values (FIG. 3) (healthy female panelists [1]; [4]): acknowledged to have a psycho-stimulative effect; also recorded: remarkably strong psycho-stimulative effect as compared with lemon oil |
| CC/C=C\CCOC(=O)c1ccccc1O [Z-3-hexenyl salicylate, cis-3-hexenyl salicylate] | psycho-sedative effect similar to that of DMMB | – |
| C=CC(C)(O)CCC=C(C)C (centres unmarked) [linalool] | psycho-sedative effect similar to that of DMMB | – |
| CC1=C2CCC(C)CC2OC1=O (centres unmarked) [menthalactone, 3,6-dimethyl-5,6,7,7a-tetrahydro-2(4H)-benzofuranone] | – | psycho-stimulative / psycho-sedative effect by measured CNV values (FIG. 2) (healthy female panelists [1]; [4]): psycho-stimulative effect similar to that of limone oil |
| CC1=CC(=O)C(C(C)C)CC1 (centres unmarked) [piperitone, p-menth-1-en-3-one] | – | psycho-stimulative / psycho-sedative effect by measured CNV values (FIG. 2) (healthy female panelists [1]; [4]): psycho-stimulative effect similar to that of limone oil |
| CC(=O)/C(C)=C/C1C(C)=CCCC1(C)C (centres unmarked) [γ-methyl ionone] | psycho-sedative effect similar to that of DMMB | – |
| CCCCCC1C(=O)CCC1CC(=O)OC (centres unmarked) [hedione, methyl dihydrojasmonate] | psycho-sedative effect similar to that of DMMB | – |
| CCCCCCCCCCCCCC(=O)OCC [ethyl myristate, ethyl tetradecanoate] | – | psycho-stimulative / psycho-sedative effect by measured CNV values (FIG. 2) (healthy female panelists [1]; [4]): psycho-stimulative effect similar to that of limone oil |
| C/C=C(/C)C(=O)OCCC(C)C [isoamyl angelate, isoamyl(Z)-2-methyl-2-butenoate] | – | psycho-stimulative / psycho-sedative effect by measured CNV values (FIG. 2) (healthy female panelists [1]; [4]): psycho-stimulative effect similar to that of limone oil |
| CC(C=O)Cc1ccc2c(c1)OCO2 (centres unmarked) [helional] | psycho-sedative effect similar to that of DMMB | – |
| OCCc1ccccc1 [β-phenylethyl alcohol] | psycho-sedative effect similar to that of DMMB | – |
| terpinyl butyrate | psycho-sedative effect similar to that of DMMB | – |
| CC(C)=CCC/C(C)=C\CO [nerol] | psycho-sedative effect similar to that of DMMB | – |
| C/C=C(/C)C(=O)OCCc1ccccc1 [phenylethyl angelate, 2-phenylethyl(Z)-2-methyl-2-butenoate] | – | psycho-stimulative / psycho-sedative effect by measured CNV values (FIG. 2) (healthy female panelists [1]; [4]): psycho-stimulative effect similar to that of limone oil |
| C=C(C)[C@H]1CC=C(C)CC1 [limonene] | psycho-sedative effect similar to that of DMMB | – |
| COC(=O)c1ccc(OC)cc1 [methyl anisate] | psycho-sedative effect similar to that of DMMB | – |
| CC(=O)C1(C)CC2=C(CCCC2(C)C)CC1C (centres unmarked) [Iso E Super] | psycho-sedative effect similar to that of DMMB | – |

| Compound | psycho-sedative / psycho-stimulative effect by measured CNV values (FIG. 1) (healthy female panelists [1]; 1% ethanol solution) | further results |
| --- | --- | --- |
| CC(C)=CCC/C(C)=C/CO [geraniol] | psycho-sedative effect similar to that of DMMB | – |
| COc1cc(C)cc(OC)c1 [DMMB, 1,3-dimethoxy-5-methylbenzene, reference compound] | – | psycho-stimulative / psycho-sedative effect by measured CNV values (FIG. 2) (healthy female panelists [1]; [4]): psycho-sedative effect of DMMB was confirmed; sedative effect [2]: has a sedative effect |
| Cn1c(=O)c2c(ncn2C)n(C)c1=O [caffeine] | – | CNV amplitude change (healthy female panelists [3]): increases |
| CC(C)c1ccc(CO)cc1 [cuminyl alcohol, 4-isopropylbenzyl alcohol] | – | psycho-stimulative / psycho-sedative effect by measured CNV values (FIG. 2) (healthy female panelists [1]; [4]): psycho-stimulative effect similar to that of limone oil |
| CC1=CCC2C(=O)C1C2(C)C (centres unmarked) [chrysanthenone] | psycho-sedative effect similar to that of DMMB | – |
| CCCCCC1CCC(=O)O1 (centres unmarked) [γ-nonalactone] | psycho-sedative effect similar to that of DMMB | – |
| O=C1CN=C(c2ccccc2)c2cc([N+](=O)[O-])ccc2N1 [nitrazepam] | – | CNV amplitude change (healthy female panelists [3]): decreases |
| C=CC(C)=CCC=C(C)C [ocimene] | psycho-sedative effect similar to that of DMMB | – |
| CC(C=O)Cc1ccc(C(C)(C)C)cc1 (centres unmarked) [lilial] | psycho-sedative effect similar to that of DMMB | – |
| CCC1CCC(=O)O1 (centres unmarked) [γ-hexalactone] | psycho-sedative effect similar to that of DMMB | – |
| CC(C)(O)CCCC1=CCC(C=O)CC1 (centres unmarked) [lyral] | psycho-sedative effect similar to that of DMMB | – |
| C=CC(C)(CCC=C(C)C)OC(C)=O (centres unmarked) [linalyl acetate] | psycho-sedative effect similar to that of DMMB | – |
| Cc1ccc(CC=O)cc1 [p-methylphenylacetaldehyde] | psycho-sedative effect similar to that of DMMB | – |
| CC(=O)OC/C=C(\C)CCC=C(C)C [geranyl acetate] | psycho-sedative effect similar to that of DMMB | – |
| CC=Cc1ccc(OC(C)=O)c(OC)c1 [acetyl isoeugenol, methoxy-4-acetoxypropenylbenzene] | psycho-sedative effect similar to that of DMMB | – |
| CC(C)=CCCC(C)CCO (centres unmarked) [citronellol] | psycho-sedative effect similar to that of DMMB | – |
